# Measurements taken from EP1148124A1 (priority 1999, dated 2000).
# System: aryl hydrocarbon receptor
# Assay: Reporter assay (No. 1), ligand responsive reporter gene (firefly luciferase, pGV-Ya-XREx5), clone of Example 2
# Type: cell-based, mouse
# Conditions: about 40 hours; for Amount of luminescence by firefly luciferase (from pGV-Ya-XREx5) Ratio: ratio to 0 pg/ml
# Text: Separately, plasmid pGV-Ya-XREx5 (ligand responsive reporter gene containing plasmid) constructed in Example 1 was digested with Bam HI. Further, plasmid pRL-TK (cell number reporter gene containing plasmid; marketed by Toyo Ink) containing the sea pansy luciferase gene used as the cell number reporter gene was digested with Bam HI, and neomycin resistance (aminoglycoside phosphotransferase) gene containing plasmid pRc/RSV (available from INVITROGEN) was digested with Hind III. These three digested plasmids, i.e., Bam HI digested pGV-Ya-XREx5 (2.8 µg), Bam HI digested pRL-TK (2.8 µg), and Hind III digested pRc/RSV (0.5 µg), were then mixed with 300 µl of αMEM medium (mixture A), while 36 µl of lipofectin (available from GIBCO-BRL) was mixed with 300 µl of αMEM medium (mixture B). After being left at room temperature for 30 minutes, mixtures A and B were combined together and left at room temperature for 10 minutes. The Hepa1clc7 cells cultured overnight as described above were then washed once with αMEM medium, to which there was added a solution prepared by adding and mixing additional 5.4 ml of αMEM medium to the above mixture (A + B). Culturing of the resulting mixture was carried out for 5 hours. The medium was then replaced with 10% serum containing αMEM medium, followed by further culturing overnight. Subsequently, the cells were scratched from the petri dishes and collected, and the collected cells were suspended in 10% serum containing αMEM medium to have the total volume of 100 ml. The resulting cell suspension was plated on 96 well plates at a ratio of 100 µl/well. After these plates were cultured overnight, a medium prepared by dissolving geneticin (hereinafter referred to as "G418") in 10% serum containing αMEM medium to have a concentration of 1.6 mg/ml was added at a ratio of 100 µl/well (G418 final concentration 800 µg/ml). Culturing was further continued for 3 weeks, during which the medium was replaced with 10% serum containing αMEM medium containing 800 µg/ml G418 at a rate of once per week. The volume of the medium was set at 200 µl/well. After said 3 weeks, cells were scratched from the wells in which colony formation had been observed, and collected (for 192 wells), and the collected cells were divided into three and independently plated on different plates, followed by continuous culturing for 4 days. To the first plate, only DMSO was added (solvent control), and to the second plate, 3-methylcholanthrene (hereinafter referred to as "3-MC") dissolved in DMSO was added so that the final concentration of 3-MC in the second plate came to 10 µM per well. The first and second plates were then cultured overnight. The third plate was further cultured as the master plate without any addition. From each well of each plate, to which DMSO or 3-MC had been added, the medium was removed, and the wells were washed twice with PBS(-) (sodium chloride, 8000 mg/l; potassium chloride, 200 mg/l; sodium monohydrogenphosphate (anhydrous), 1150 mg/l; […] dihydrogenphosphate (anhydrous), 200 mg/l; marketed by Nissui Pharmaceutical). A 5-fold diluted cell lysis buffer of PicaGene dual kit (marketed by Toyo Ink) was added to the wells in 15 µl/well, followed by leaving the plates at room temperature for 30 minutes or longer to cause cell lysis, to give cell extracts. These plates were set on a luminometer LB96P with an automatic enzyme substrate injector (available from Berthold), and PicaGene luminescence reagent II and sea pansy luminescence reagent (PicaGene dual kit, marketed by Toyo Ink) were automatically dispensed each in 50 µl, followed by continuous measurement for the amount of luminescence.
# The clone screened in Example 2 was plated on 96-well plates at a ratio of 40,000 cells/well, followed by culturing overnight. […]
compound,measurement,setting,value
"Clc1cc2c(cc1Cl)Oc1cc(Cl)c(Cl)cc1O2 [TCDD, 2,3,7,8-tetrachlorodibenzo-p-dioxin]",Amount of luminescence by firefly luciferase (from pGV-Ya-XREx5) Measured value,final conc. 0.02 pg/ml,0.517 x 10^4
same,Amount of luminescence by firefly luciferase (from pGV-Ya-XREx5) Ratio,final conc. 0.02 pg/ml,1.1
same,Amount of luminescence by firefly luciferase (from pGV-Ya-XREx5) Measured value,final conc. 0.2 pg/ml,0.532 x 10^4
same,Amount of luminescence by firefly luciferase (from pGV-Ya-XREx5) Ratio,final conc. 0.2 pg/ml,1.1
same,Amount of luminescence by firefly luciferase (from pGV-Ya-XREx5) Measured value,final conc. 2 pg/ml,0.873 x 10^4
same,Amount of luminescence by firefly luciferase (from pGV-Ya-XREx5) Ratio,final conc. 2 pg/ml,1.8
same,Amount of luminescence by firefly luciferase (from pGV-Ya-XREx5) Measured value,final conc. 20 pg/ml,3.14 x 10^4
same,Amount of luminescence by firefly luciferase (from pGV-Ya-XREx5) Ratio,final conc. 20 pg/ml,6.5
same,Amount of luminescence by firefly luciferase (from pGV-Ya-XREx5) Measured value,final conc. 200 pg/ml,4.46 x 10^4
same,Amount of luminescence by firefly luciferase (from pGV-Ya-XREx5) Ratio,final conc. 200 pg/ml,9.2
same,Amount of luminescence by firefly luciferase (from pGV-Ya-XREx5) Measured value,final conc. 2000 pg/ml,4.17 x 10^4
same,Amount of luminescence by firefly luciferase (from pGV-Ya-XREx5) Ratio,final conc. 2000 pg/ml,8.6
same,Amount of luminescence by firefly luciferase (from pGV-Ya-XREx5) Measured value,final conc. 20000 pg/ml,4.49 x 10^4
same,Amount of luminescence by firefly luciferase (from pGV-Ya-XREx5) Ratio,final conc. 20000 pg/ml,9.2
